Patent publication US8741559B2, “Cellular assay employing detectable protein” (DiscoveRx Corporation, priority 2009, dated 2014)

What was measured:
FRAP1 = test: Phospho-Akt1 (Ser473) cellular assay; format: cell-based, human; settings: Hek 293 cells; for dose response in the phospho-Akt1 (Ser473) assay: FIG. 5; for IC50 through the FRAP1 pathway compared with the PDPK1 pathway: anti-phospho Akt1 (Ser473) versus anti-phospho Akt (Thr308) assays
Protocol: (§1) In this cellular assay, compounds were tested for their ability to inhibit Braf, by measuring the phosphorylation of Mek1, a direct kinase substrate of Braf. A375 cells expressing the constitutively active Braf V600E mutation were plated at a density of 3e5 cells/mL in a 10 cm plate and transfected with expression plasmid encoding detectable protein (16 μg) in 1 mL OPTI-MEM buffer (GIBCO/Invitrogen) with 40 μL Lipofectamine 2000 (Invitrogen) and incubated at 37° C. for 18-22 h. On the following day, media was removed and cells washed with PBS, trypsinized then quenched with M3 media (DMEM containing 10% FBS). Cells were counted and resuspended in M3 complete media to a density of […] and then plated at 50,000 cells/well/100 μL into a 96-well plate and incubated at 37° C. for 3h. Media was then removed and starvation media (0.5% FBS/DMEM) was added to the wells and allowed to incubate overnight. On the following day, the cells were incubated with compound in M3 starvation media and incubated at 37° C. for 2 hours.
The cells were centrifuged at 3000 rpm for 20 minutes. […] Lysate dilution was carried out in two steps. The 96-well plate containing 10 μL extract aliquot was thawed at room temp, and 40 microliters of a solution of 0.1% BSA /1× PBS 0.05% Tween with 2 nM nucleic acid tag serving as the NF-κB probe was added, and mixed by orbital shaking at 450 rpm at room temp for 10 min. Then 270 microliters of a solution of 20 microgram per mL sheared salmon sperm DNA in 0.1% BSA/1× PBS 0.05was added, and mixed gently by pipetting up and down.
On the following day, beads were pelleted then washed/blocked and resuspended in 1-2×2% BSA/PBST and plated out onto a 96-well polypropylene plate at half the original stock concentration. The phospho-MEK1 binding assay was carried out on a separate plate containing 25 μL of beads and 100 μL 2% BSA/PBST which was shaken until the addition of cell lysate. For the binding assay, beads were first pelleted and the buffer aspirated, and then 100 μL of diluted lysate was added to each well and the plate was shaken at room temperature for one hour. After the binding step, the beads were pelleted for 4 minutes, the buffer aspirated and 150 μL of PBST was added. The plate was briefly shaken and then pelleted over a magnet and then washed two to four times with wash buffer (1× PBS/0.05% Tween 20) to remove unbound proteins. After the final wash, the beads were resuspended in 150 μL of IgG elution buffer (Pierce Cat No. 21004) supplemented with Tween 20 to 0.05% and incubated at room temperature with shaking for 60 minutes. After pelleting the beads, 50 μL of the eluted mixture was removed, and added to 30 μL of 200 mM Tris base, mixed well, and then transferred to the DNA detection assay. For qPCR, 2.5 μL was transferred to 7.5 μL of mastermix with appropriate primers and probes (Applied Biosystems).
As shown in the diagram in FIG. 2, the PIK3CA kinase mediates signaling through two separate pathways, e.g., by direct activation of the kinase substrates FRAP1 (the kinase domain of mTOR), or other less-studied kinases known as “PDK2” in the literature and PDPK1, both of which in turn phosphorylate Akt. […] Therefore, using this cellular assay, compounds were interrogated for their inhibitory mechanism not only against PIK3CA but also against FRAP1 or PDPK1, by measuring site-specific phosphorylation of Akt. […] A binding assay using anti-total Akt1 antibody was also run in parallel to normalize the amount of measured phospho-Akt1 across wells.

PDPK1 = test: Phospho-Akt1 (Thr308) cellular assay; format: cell-based, human; settings: Hek 293 cells, FIG. 6
Protocol: as §1, with “On the following day, the cells were incubated with compound in M3 starvation media and incubated at 37° C. for 2 hours.” left out
As shown in the diagram in FIG. 2, the PIK3CA kinase mediates signaling through two separate pathways, e.g., by direct activation of the kinase substrates FRAP1 (the kinase domain of mTOR), or other less-studied kinases known as “PDK2” in the literature and PDPK1, both of which in turn phosphorylate Akt. […] A binding assay using anti-total Akt1 antibody was also run in parallel to normalize the amount of measured phospho-Akt1 across wells.

IC50 through the FRAP1 pathway compared with the PDPK1 pathway (FRAP1)	Structure (SMILES)	dose response in the phospho-Akt1 (Ser473) assay (FRAP1)	inhibition of Thr308 phosphorylation of Akt (PDPK1)
selectively inhibiting PDPK1 over FRAP1	O=C(NCCCNc1nc(Nc2cccc(NC(=O)N3CCCC3)c2)ncc1I)c1cccs1 [BX-795]	insensitive	
nearly equipotent IC50	Oc1cccc(-c2nc(N3CCOCC3)c3oc4ncccc4c3n2)c1 [PI103]		
nearly equipotent IC50s	FC(F)c1nc2ccccc2n1-c1nc(N2CCOCC2)nc(N2CCOCC2)n1 [ZSTK-474]		

Further lines, the compound ahead of its results:

Structure (SMILES)	IC50 through the FRAP1 pathway compared with the PDPK1 pathway (FRAP1)	dose response in the phospho-Akt1 (Ser473) assay (FRAP1)	inhibition of Thr308 phosphorylation of Akt (PDPK1)
C[C@@H]1C[C@H]2O[C@@H]2/C=C\C=C\C(=O)Cc2c(Cl)c(O)cc(O)c2C(=O)O1 [radicicol]		partially sensitive	could only partially inhibit Thr308 phosphorylation
Nc1nc(N)c2nc(-c3cccc(O)c3)c(-c3cccc(O)c3)nc2n1 [TG-100-115]		insensitive	
